# The source made the active and inactive calls. The rule behind the calls is not given here.
# Columns and labels:
# SW-620 [1] = assay: Induction of apoptosis in human SW620 cells assessed as late apoptotic cells at IC50 incubated for 72 hrs by Annexin V-FITC/PI staining based flow cytometric analysis (reference value: 1.2 %); type: functional
# SW-620 [2] = assay: Induction of apoptosis in human SW620 cells assessed as early apoptotic cells at IC50 incubated for 72 hrs by Annexin V-FITC/PI staining based flow cytometric analysis (reference value: 5.2 %); type: functional
# HepG2 = assay: Cytotoxicity against human HepG2 cells assessed as cell growth inhibition measured after 72 hrs by MTT assay; type: functional, cell-based; details: HepG2, 72 h
# K562 [3] = assay: Antiproliferative activity against human K562 cells assessed as reduction in cell number at IC50 measured after 72 hrs by trypan blue dye based assay relative to control; type: functional; parameters: scale not given: the % may be the effect or the level left
# SW480 [4] = assay: Antiproliferative activity against human SW480 cells assessed as reduction in cell viability at IC50 measured after 72 hrs by trypan blue dye based assay relative to control; type: functional
# SW480 [5] = assay: Induction of apoptosis in human SW480 cells assessed as necrotic cells at IC50 incubated for 72 hrs by Annexin V-FITC/PI staining based flow cytometric analysis (reference value: 0.1 %); type: functional
# SW-620 [6] = assay: Antiproliferative activity against human SW620 cells assessed as reduction in cell viability at IC50 measured after 72 hrs by trypan blue dye based assay relative to control; type: functional
# SW-620 [7] = assay: Antiproliferative activity against human SW620 cells assessed as reduction in cell number at IC50 measured after 72 hrs by trypan blue dye based assay relative to control; type: functional; parameters: scale not given: the % may be the effect or the level left
# K562 [8] = assay: Induction of apoptosis in human K562 cells assessed as early apoptotic cells at IC50 incubated for 72 hrs by Annexin V-FITC/PI staining based flow cytometric analysis (reference value: 1.3 %); type: functional
# HCT-116 [9] = assay: Antiproliferative activity against human HCT-116 cells assessed as decrease in IL-6 level at IC50 measured after 72 hrs by ELISA assay relative to control; type: functional; parameters: scale not given: the % may be the effect or the level left
# HaCaT [10] = assay: Induction of apoptosis in human HaCaT cells at IC50 incubated for 72 hrs by Annexin V-FITC/PI staining based flow cytometric analysis; type: functional, cell-based
# SW480 [11] = assay: Antiproliferative activity against human SW480 cells assessed as reduction in cell number at IC50 measured after 72 hrs by trypan blue dye based assay relative to control; type: functional; parameters: scale not given: the % may be the effect or the level left
# SW480 [12] = assay: Induction of apoptosis in human SW480 cells assessed as early apoptotic cells at IC50 incubated for 72 hrs by Annexin V-FITC/PI staining based flow cytometric analysis (reference value: […]); type: functional
# HCT-116 [13] = assay: Antiproliferative activity against human HCT-116 cells assessed as reduction in cell viability at IC50 measured after 72 hrs by trypan blue dye based assay relative to control; type: functional
# SW480 [14] = assay: Induction of apoptosis in human SW480 cells assessed as late apoptotic cells at IC50 incubated for 72 hrs by Annexin V-FITC/PI staining based flow cytometric analysis (reference value: 0.8 %); type: functional
# [15] = molecular target: 5-hydroxytryptamine receptor 2A (Rattus norvegicus, UniProt P14842); assay: Displacement of [3H]ketanserin from Sprague-Dawley rat 5-HT2A receptor assessed as inhibition constant measured after 60 mins by competitive binding assay
# HMEC-1 [16] = assay: Antiproliferative activity against human HMEC-1 cells assessed as reduction in cell viability at IC50 measured after 72 hrs by trypan blue dye based assay relative to control; type: toxicity; details: hmec-1, 72 h
# [17] = Selectivity index, ratio of IC50 for cytotoxicity against human HMEC-1 cells to IC50 for cytotoxicity against human PC-3 cells; type: toxicity, cell-based; details: HMEC-1 cells and PC-3 cells, read-out: Ratio IC50
# HCT-116 [18] = assay: Induction of apoptosis in human HCT-116 cells assessed as increase in caspase-3/7 activity at IC50 incubated for 24 hrs by Glo assay relative to control; type: functional
# [19] = Selectivity index, ratio of IC50 for cytotoxicity against human HMEC-1 cells to IC50 for cytotoxicity against human K562 cells; type: toxicity, cell-based; details: HMEC-1 cells and K562 cells, read-out: Ratio IC50
# SW-620 [20] = assay: Induction of apoptosis in human SW620 cells assessed as viable cells at IC50 incubated for 72 hrs by Annexin V-FITC/PI staining based flow cytometric analysis (reference value: 92.9 %); type: functional
# SW-620 [21] = assay: Induction of apoptosis in human SW620 cells assessed as necrotic cells at IC50 incubated for 72 hrs by Annexin V-FITC/PI staining based flow cytometric analysis (reference value: 0.7 %); type: functional
# K562 [22] = assay: Induction of apoptosis in human K562 cells assessed as late apoptotic cells at IC50 incubated for 72 hrs by Annexin V-FITC/PI staining based flow cytometric analysis (reference value: […]); type: functional
# SW480 [23] = assay: Induction of apoptosis in human SW480 cells assessed as viable cells at IC50 incubated for 72 hrs by Annexin V-FITC/PI staining based flow cytometric analysis (reference value: 97.7 %); type: functional
# HCT-116 [24] = assay: Antiproliferative activity against human HCT-116 cells assessed as reduction in cell number at IC50 measured after 72 hrs by trypan blue dye based assay relative to control; type: functional; parameters: scale not given: the % may be the effect or the level left
# SW-620 [25] = assay: Antiproliferative activity against human SW620 cells assessed as decrease in IL-6 level at IC50 measured after 72 hrs by ELISA assay relative to control; type: functional; parameters: scale not given: the % may be the effect or the level left
# HCT-116 [26] = assay: Induction of apoptosis in human HCT-116 cells assessed as increase in caspase-3/7 activity at IC50 incubated for 24 hrs by Glo assay; type: functional, cell-based
# PC-3 [27] = assay: Induction of apoptosis in human PC-3 cells assessed as viable cells at IC50 incubated for 72 hrs by Annexin V-FITC/PI staining based flow cytometric analysis (reference value: 94.4 %); type: functional
# PC-3 [28] = assay: Induction of apoptosis in human PC-3 cells assessed as necrotic cells at IC50 incubated for 72 hrs by Annexin V-FITC/PI staining based flow cytometric analysis (reference value: 3.6 %); type: functional
# PC-3 [29] = assay: Antiproliferative activity against human PC-3 cells assessed as reduction in cell number at IC50 measured after 72 hrs by trypan blue dye based assay relative to control; type: functional; parameters: scale not given: the % may be the effect or the level left
# PC-3 [30] = assay: Induction of apoptosis in human PC-3 cells assessed as increase in caspase-3/7 activity at IC50 incubated for 24 hrs by Glo assay relative to control; type: functional
# PC-3 [31] = assay: Induction of apoptosis in human PC-3 cells assessed as early apoptotic cells at IC50 incubated for 72 hrs by Annexin V-FITC/PI staining based flow cytometric analysis (reference value: 0.3 %); type: functional
# PC-3 [32] = assay: Antiproliferative activity against human PC-3 cells assessed as reduction in cell viability at IC50 measured after 72 hrs by trypan blue dye based assay relative to control; type: functional
# PC-3 [33] = assay: Induction of apoptosis in human PC-3 cells assessed as late apoptotic cells at IC50 incubated for 72 hrs by Annexin V-FITC/PI staining based flow cytometric analysis (reference value: 1.7 %); type: functional
# HMEC-1 [34] = assay: Induction of apoptosis in human HMEC-1 cells assessed as increase in caspase-3/7 activity at IC50 incubated for 24 hrs by Glo assay relative to control; type: functional
# HaCaT [35] = assay: Induction of apoptosis in human HaCaT cells assessed as late apoptotic cells at IC50 incubated for 72 hrs by Annexin V-FITC/PI staining based flow cytometric analysis relative to control; type: functional
# Sequence of 5-hydroxytryptamine receptor 2A (P14842 whole entry): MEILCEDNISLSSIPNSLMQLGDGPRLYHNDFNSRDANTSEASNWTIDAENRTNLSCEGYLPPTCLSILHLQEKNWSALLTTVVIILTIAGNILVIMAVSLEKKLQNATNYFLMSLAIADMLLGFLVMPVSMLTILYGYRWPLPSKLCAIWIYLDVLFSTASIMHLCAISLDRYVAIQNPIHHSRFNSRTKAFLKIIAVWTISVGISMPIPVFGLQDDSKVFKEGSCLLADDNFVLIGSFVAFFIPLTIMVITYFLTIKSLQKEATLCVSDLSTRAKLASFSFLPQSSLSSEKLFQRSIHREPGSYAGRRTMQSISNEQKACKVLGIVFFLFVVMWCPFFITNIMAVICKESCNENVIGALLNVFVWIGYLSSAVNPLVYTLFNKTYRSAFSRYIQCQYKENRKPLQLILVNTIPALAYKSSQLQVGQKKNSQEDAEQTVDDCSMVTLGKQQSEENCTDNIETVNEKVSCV
Compound,Ki [15],IC50 (HepG2),Activity (K562 [3]),Activity (SW480 [4]),Activity (SW480 [5]),Activity (K562 [8]),Activity (HCT-116 [9]),Activity (HaCaT [10]),Activity (SW480 [11]),Activity (SW480 [12]),Activity (HCT-116 [13]),Activity (SW480 [14]),Activity (HMEC-1 [16]),selectivity ratio [17],Activity (HCT-116 [18]),selectivity ratio [19],Activity (K562 [22]),Activity (SW480 [23]),Activity (HCT-116 [24]),Activity (PC-3 [27]),also measured
CC12C(=O)C(C)(C(c3ccccc3)=C1c1ccccc1)C1C(=O)N(CCCCN3CCN(c4ncccn4)CC3)C(=O)C12 (stereo not given),–,16.7 µM,64%,–,–,4%,53%,inactive,–,–,36%,–,Non-Toxic,1.49,137%,3.78,11.7%,–,49%,–,–
CC12C(=O)C(C)(C(c3ccccc3)=C1c1ccccc1)C1C(=O)N(CCCCN3CCN(c4ccccc4F)CC3)C(=O)C12 (stereo not given),0.3 µM,26.8 µM,82%,21%,0.1%,5.2%,53%,–,46%,10.8%,35%,1.4%,Non-Toxic,1.92,137%,3.13,27.3%,87.8%,35%,75.6%,Activity (PC-3 [28]): 2.1%; Activity (HMEC-1 [34]): 13%; Activity (PC-3 [29]): 27%; Activity (PC-3 [30]): 127%; Activity (PC-3 [31]): 6.3%; Activity (PC-3 [32]): 26%; Activity (HaCaT [35]): 12.3%; Activity (PC-3 [33]): 16.2%
CC12C(=O)C(C)(C(c3ccccc3)=C1c1ccccc1)C1C(=O)N(CCCCN3CCN(c4cccc(Cl)c4)CC3)C(=O)C12 (stereo not given),25.3 µM,14.1 µM,82%,21%,0.1%,5.2%,–,inactive,39%,16.8%,16%,1.2%,Non-Toxic,2.55,–,5.01,25.4%,81.9%,26%,78.5%,Activity (PC-3 [28]): 2.1%; Activity (PC-3 [29]): 29%; Activity (PC-3 [30]): 70%; Activity (PC-3 [31]): 3.3%; Activity (PC-3 [32]): 26%; Activity (HCT-116 [26]): inactive; Activity (PC-3 [33]): 16.2%

# More lines, in order of falling Ki [15], values ahead:
Ki [15],Compound,IC50 (HepG2),Activity (K562 [3]),Activity (SW480 [4]),Activity (SW480 [5]),Activity (K562 [8]),Activity (HCT-116 [9]),Activity (HaCaT [10]),Activity (SW480 [11]),Activity (SW480 [12]),Activity (HCT-116 [13]),Activity (SW480 [14]),Activity (HMEC-1 [16]),selectivity ratio [17],Activity (HCT-116 [18]),selectivity ratio [19],Activity (K562 [22]),Activity (SW480 [23]),Activity (HCT-116 [24]),Activity (PC-3 [27]),also measured
4.7 µM,CC12C(=O)C(C)(C(c3ccccc3)=C1c1ccccc1)C1C(=O)N(CCCCN3CCN(c4ccccn4)CC3)C(=O)C12 (stereo not given),14.6 µM,79%,–,–,6.3%,–,inactive,–,–,17%,–,Non-Toxic,1.73,–,4.13,43.8%,–,28%,–,Activity (HCT-116 [26]): inactive
0.2 µM,COc1ccccc1N1CCN(CCCCN2C(=O)C3C(C2=O)C2(C)C(=O)C3(C)C(c3ccccc3)=C2c2ccccc2)CC1 (stereo not given),15.7 µM,88%,22%,0.1%,5.9%,53%,inactive,40%,11.1%,34%,1.7%,Non-Toxic,2.07,53%,4.47,51.3%,87.1%,44%,–,Activity (SW-620 [1]): 1.8%; Activity (SW-620 [2]): 7.6%; Activity (SW-620 [6]): 27%; Activity (SW-620 [7]): 27%; Activity (SW-620 [20]): 89.2%; Activity (SW-620 [21]): 1.4%; Activity (SW-620 [25]): 31%
0.1 µM,CC12C(=O)C(C)(C(c3ccccc3)=C1c1ccccc1)C1C(=O)N(CCCCN3CCN(c4ccccc4Cl)CC3)C(=O)C12 (stereo not given),12.9 µM,61%,21%,0.1%,5.2%,53%,inactive,38%,10%,30%,1%,Non-Toxic,2.63,137%,5.15,19.4%,89%,29%,60.1%,Activity (SW-620 [1]): 2.2%; Activity (SW-620 [2]): 6.1%; Activity (PC-3 [28]): 3.1%; Activity (SW-620 [6]): 23%; Activity (SW-620 [7]): 27%; Activity (PC-3 [29]): 43%; Activity (PC-3 [30]): 216%; Activity (PC-3 [31]): 4.2%; Activity (SW-620 [20]): 89.9%; Activity (SW-620 [21]): 1.8%; Activity (PC-3 [32]): 26%; Activity (PC-3 [33]): 32.6%; Activity (SW-620 [25]): 24%
